The values that follow come from patent US20060122279A1, “Hydrophobic polyamine amides as potent lipopolysaccharide sequestrants” (priority 2004, published 2006).

pEC50, pIC50: −log10 of the molar value. Values joined by “and” are separate entries in the source; they are usually repeats but may differ in a detail not shown here. Equal values may be shown once. Read-outs that look alike come from different tables or passages of the source.

The format of test [1] is binding, E. coli 0111:B4. The conditions noted are these: for pEC50: E. coli 0111:B4 LPS, Tables 1-3, read-out: ED50 (half-maximal effective displacement of BC probe from LPS). The method, then:
Polymyxin B (PMB), a peptide antibiotic known to bind and neutralize LPS^47 serves as the positive control and reference compound for every plate, enabling the quantitative assessment of repeatability and reproducibility (CV and Z′ factors) for the assay. Robotic liquid handling is performed on a Precision 2000 automated microplate pipetting system, programmed using the Precision Power software, Bio-Tek Instruments Inc., VT, USA. Stock solutions of LPS (5 mg/ml; E. coli 0111:B4; procured from Sigma) and BC (500 μM) are prepared in Tris buffer (pH 7.4, 50 mM). 1 ml each of the LPS and BC stocks are mixed and diluted in Tris buffer to a final volume of 100 ml, yielding final concentrations of 50 μg/ml of LPS and 5 μM BC. 40 μl of this BC:LPS mixture is added to each well of the plate using the Precision 2000. Fluorescence measurements are made at 25° C. on a Fluoromax-3 with Micromax Microwell 384-well plate reader, using DataMax software, Jobin Yvon Inc., N.J. The BC excitation wavelength is 580 nm, emission spectra are taken at 620 nm with both emission and excitation monochromator bandpasses set at 5 nm.

The test system of test [2] is murine macrophage J774.A1 cells. The experiment in a line: Nitric oxide (NO) inhibition in LPS-stimulated J774.A1 cells (Griess). In kind it is cell-based. The method, then:
Murine monocytes (J774.A1 cells) produce measurable quantities of NO on exposure to LPS and provide a model for the rapid assessment of compounds to neutralize LPS activity. […] In all experiments, Polymyxin B (PMB), a decapeptide antibiotic, known to bind and neutralize LPS,^29;47;48 is used as a reference compound.
Nitric oxide production is measured as total nitrite in murine macrophage J774.A1 cells using the Griess reagent system.^53;54 Murine macrophage J774.A1 cells are grown in RPMI-1640 cell-culture medium containing L-glutamine and sodium bicarbonate and supplemented with 10% fetal bovine serum, 1% L-glutamine-penicillin-streptomycin solution, and 200 μg/ml L-arginine at 37° C. in a 5% CO2 atmosphere. Cells are plated at ˜2×10^6/ml in a volume of 40 μl/well, in 384 well, flat-bottomed, cell culture treated microtiter plates until confluency and subsequently stimulated with 100 ng/ml lipopolysaccharide (LPS). Concurrent to LPS stimulation, serially diluted concentrations of test compounds are added to the cell medium and left to incubate overnight for 16 h. Polymyxin B is used as reference compound in each plate. Positive—(LPS stimulation only) and negative-controls (J774.A1 medium only) are included in each experiment. Nitrite concentrations are measured adding 30 μl of supernatant to equal volumes of Griess reagents (50 μl/well; 0.1% NED solution in ddH2O and 1% sulfanilamide, 5% phosphoric acid solution in ddH2O) and incubating for 15 minutes at room temperature in the dark. Absorbance at 535 nm is measured using a Molecular Devices Spectramax M2 multifunction plate reader (Sunnyvale, Calif.). Nitrite concentrations are interpolated from standard curves obtained from serially diluted sodium nitrite standards.

Setting [3] is: J774.A1 cells, 100 ng/ml LPS, 16 h, Tables 1-3, read-out: NO IC50.
The mark [4] stands for this setting: Mus musculus, J774.A1, 16 h, read-out: NO IC50, J774.A1 cells, 100 ng/ml LPS, 16 h, Tables 1-3.
The mark [5] stands for this setting: Table 7 focused library, NO inhibition, read-out: NO.
Where [6] appears, read: Mus musculus, J774.A1, 16 h, J774.A1 cells, 100 ng/ml LPS, 16 h, Tables 1-3, read-out: NO IC50.
[7] abbreviates: Mus musculus, J774.A1, read-out: IC50 (LPS neutralization, NO).

Regarding `NCCCNCCCCNCCCNC(=O)C(N)CCCCNCc1ccc(-c2ccccc2)cc1` [Compound 39, D-Lys-ε-(4-phenylbenzyl)-N^1-spermine], the pEC50 in test [1] is 5.43. Besides, the pIC50 was 3.98 in test [2] (setting [3]) and less than 4.00 in test [2] (setting [4]).

Regarding `CCCCCCCCCCCCCCCCCCCC(=O)NCCCCCC(=O)NCCCNCCCCNCCCN` [Compound 53], the pIC50 in test [2] (setting [5]) was 4.58.

As for `NCCCNCCCCNCCCNC(=O)C(N)CCCCN(CC1CCCCC1)CC1CCCCC1` [Compound 38, L-Lys-ε-(bis-(cyclohexyl))-N^1-spermine], the pEC50 in test [1] was 5.40 and 5.39. Also, the pIC50 in test [2] (setting [3]) was less than 3.00.

Regarding `CCCCCCCCCCCCCCCC(=O)NCCCCC(N)C(=O)NCCCNCCCCNCCCN` [Compound 13, D-Lys-ε-(palmitoyl)-N^1-spermine], in test [1], the pEC50 is 5.00. For the same molecule, the pIC50 was 5.64 in test [2] (setting [3]) and 4.89 in test [2] (setting [5]).

As for `CCCCCCCCCCCCCCNCCCCC(N)C(=O)NCCCNCCCCNCCCN` (centres unmarked) [Compound 46], in test [2] (setting [5]), the pIC50 is 5.27.

On to `CCCCCCCCCCCCCCCCCCCCNCCCCCC(=O)NCCCNCCCCNCCCN` [Compound 57], for which the pIC50 in test [2] (setting [5]) is 5.30.

For the molecule `CCCCCCCNCCCCC(N)C(=O)NCCCNCCCCNCCCN` (centres unmarked) [Compound 29], in test [1], the pEC50 is 5.22. For the same molecule, the pIC50 was 4.33 in test [2] (setting [3]) and 4.34 in test [2] (setting [6]).

Turning to `NCCCNCCCCNCCCNC(=O)C(N)CCCCNCC1CCCCC1` (centres unmarked) [Compound 37], the pEC50 in test [1] was 5.01. For the same molecule, the pIC50 in test [2] (setting [6]) was less than 3.00.

Turning to `NCCCNCCCCNCCCNC(=O)C(N)CCCCNC(=O)c1ccc(-c2ccccc2)cc1` [Compound 21, D-Lys-ε-(4-biphenycarboxamide)-N^1-spermine], the pEC50 in test [1] is 5.10. Further, the figures for the pIC50 in test [2] (setting [3]) and in test [2] (setting [4]) were 3.91 and less than 4.00, respectively.

For the molecule `CCCC/C=C/CCCCCCCCCC(=O)NCCCCC(N)C(=O)NCCCNCCCCNCCCN` (centres unmarked) [Compound 15], in test [1], the pEC50 was 5.42. For the same molecule, the results for the pIC50 in test [2] (setting [3]) and in test [2] (setting [4]) were 5.05 and 5.06, respectively.

Regarding `NCCCNCCCCNCCCNC(=O)C(N)CCCCNC(=O)CC1CC2CCC1C2` [Compound 20, D-Lys-ε-(2-norbornaneacetoyl)-N^1-spermine], in test [1], the pEC50 is 4.79.

Regarding `CCCCCCCCCCCCCCNCCCCC(N)C(=O)NCCCNCCCCNCCCN` (centres unmarked) [Compound 43], the pIC50 in test [2] (setting [5]) is 5.21.

Take `CCCCCC/C=C/CCCCCCCCCC(=O)NCCCCC(N)C(=O)NCCCNCCCCNCCCN` (centres unmarked) [Compound 10]: in test [1], the pEC50 was 5.38.

As to `CCCCCCCCCCCCCCCCNCCCCC(N)C(=O)NCCCNCCCCNCCCN` (centres unmarked) [Compound 47], the pIC50 in test [2] (setting [5]) is 5.16.

Turning to `CCCCCCNCCCCC(N)C(=O)NCCCNCCCCNCCCN` (centres unmarked) [Compound 31], the pEC50 in test [1] is 5.15. Moreover, the pIC50 in test [2] (setting [6]) was less than 3.00.

Regarding `CCCCCCCCCCCCCC(=O)NCCCCCC(=O)NCCCNCCCCNCCCN` [Compound 50], the pIC50 in test [2] (setting [5]) was 4.32.

`CC(C)CNCCCCC(N)C(=O)NCCCNCCCCNCCCN` [Compound 35, D-Lys-ε-(3-methylpropyl)-N^1-spermine]: the pEC50 in test [1] is 4.00. Also, the pIC50 in test [2] (setting [6]) is 4.14.

Consider `CCCCCCCCCCCCCCCCNCCCCCC(=O)NCCCNCCCCNCCCN` [Compound 55], for which the pIC50 in test [2] (setting [5]) is 5.21.

Take `CCCCCCCCCCCCCCNCCCCCC(=O)NCCCNCCCCNCCCN` [Compound 54]: the pIC50 in test [2] (setting [5]) was 5.02.

With `CC(C)(C)CCNCCCCC(N)C(=O)NCCCNCCCCNCCCN` [Compound 34, D-Lys-ε-(3,3-dimethyl-1-butyl)-N^1-spermine], in test [1], the pEC50 is 4.96. In addition, in test [2] (setting [3]), the pIC50 is 3.08.

Consider `CCCCCCCCCCCCCCCCC(=O)NCCCCC(N)C(=O)NCCCNCCCCNCCCN` [Compound 11, L-Lys-ε-(heptadecanoyl)-N^1-spermine], for which the pEC50 in test [1] is 5.17. Further, the pIC50 in test [2] (setting [6]) is 5.35.

On to `CCCCCCCCCCCCCCCCS(=O)(=O)NCCCCC(N)C(=O)NCCCNCCCCNCCCN` [Compound 12, L-Lys-ε-(hexadecanesulfonamide)-N^1-spermine], for which the pEC50 in test [1] was 5.23.

On to `CCCCCCCCCCCCCCCCCCCCNCCCCC(N)C(=O)NCCCNCCCCNCCCN` (centres unmarked) [Compound 49], for which the pIC50 in test [2] (setting [5]) is 5.66.

`CCCCCCCCCCCCCC(=O)NCCCCC(N)C(=O)NCCCNCCCCNCCCN` (centres unmarked) [Compound 41]: in test [2] (setting [5]), the pIC50 was 4.59.

With `COCCOCCOCC(=O)NCCCCC(N)C(=O)NCCCNCCCCNCCCN` [Compound 24, L-Lys-ε-(2-[2-(2-methoxyethoxy)ethoxy]acetoyl)-N^1-spermine], the pEC50 in test [1] was 3.24. Moreover, the pIC50 in test [2] (setting [6]) and in test [2] (setting [7]) was less than 3.00 in each case.

With `CCCCCCCNCCCCC(N)C(=O)NCCCNCCCCNCCCN` (centres unmarked) [Compound 28], the pEC50 in test [1] is 5.41. For the same molecule, the pIC50 in test [2] (setting [3]) was 4.08.

Turning to `CCCCCCCC(=O)NCCCCC(N)C(=O)NCCCNCCCCNCCCN` [Compound 17, L-Lys-ε-(octanoyl)-N^1-spermine], the pEC50 in test [1] is 4.89. The pIC50 in test [2] (setting [3]) is 3.79; in test [2] (setting [6]), 3.80.

Regarding `CCCC/C=C\CCCCCCCCCCNCCCCC(N)C(=O)NCCCNCCCCNCCCN` (centres unmarked) [Compound 27], the pEC50 in test [1] was 5.59. Besides, the pIC50 was 5.59 in test [1] (b47, cis-unsaturated vs saturated alkyl) and 6.18 in test [2] (setting [6]).

Turning to `CCCCCCCCCCCCCCCCCCNCCCCCC(=O)NCCCNCCCCNCCCN` [Compound 56], the pIC50 in test [2] (setting [5]) was 5.27.

For `COCCOCC(=O)NCCCCC(N)C(=O)NCCCNCCCCNCCCN` [Compound 25, L-Lys-ε-(2-(2-methoxyethoxy)acetoyl)-N^1-spermine], in test [1], the pEC50 is 3.31. Further, the pIC50 in test [2] (setting [6]) and in test [2] (setting [7]) was less than 3.00 each time.

Consider `CC(C)(C)CCNCCCCC(N)C(=O)NCCCNCCCCNCCCN` (centres unmarked) [Compound 33], for which, in test [1], the pEC50 was 4.92. The pIC50 in test [2] (setting [6]) is less than 3.00.

Turning to `CCCCCCCCCCCCCCCCCCCC(=O)NCCCCC(N)C(=O)NCCCNCCCCNCCCN` (centres unmarked) [Compound 42], the pIC50 in test [2] (setting [5]) was 5.24.

Turning to `CCCCCCCCCCCCCCCCCCCCNCCCCC(N)C(=O)NCCCNCCCCNCCCN` (centres unmarked) [Compound 45], the pIC50 in test [2] (setting [5]) was 5.44.

Turning to `CC(C)=CCC[C@H](C)CCNCCCCC(N)C(=O)NCCCNCCCCNCCCN` (some centres unmarked) [Compound 32], the pEC50 in test [1] was 5.02. Further, the pIC50 in test [2] (setting [6]) was less than 3.00.

Turning to `CCCCCCCN(CCCCCCC)CCCC[C@H](N)C(=O)NCCCNCCCCNCCCN` [Compound 30, L-Lys-ε-(bis-(n-heptyl))-N^1-spermine], the pEC50 in test [1] is 5.67. Besides, the pIC50 in test [2] (setting [3]) was 4.41.

`CC(C)(C)C(=O)NCCCCC(N)C(=O)NCCCNCCCCNCCCN` (centres unmarked) [Compound 19]: the pEC50 in test [1] is 3.49. Also, the pIC50 in test [2] (setting [6]) is less than 3.00.

`CC(C)C(=O)NCCCCC(N)C(=O)NCCCNCCCCNCCCN` [Compound 18, D-Lys-ε-(isopropoyl)-N^1-spermine]: the pEC50 in test [1] is 3.52. For the same molecule, in test [2] (setting [6]), the pIC50 was less than 3.00.

As to `NCCCNCCCCNCCCNC(=O)C(N)CCCCNC(=O)CCCc1ccc2ccc3cccc4ccc1c2c34` [Compound 22, L-Lys-ε-(4-(1-pyrene)-butanoyl)-N^1-spermine], the pEC50 in test [1] was 5.15. For the same molecule, the pIC50 in test [2] (setting [3]) is 3.97; in test [2] (setting [4]), less than 4.00.

Consider `CCCCCCCCCCCCCCCCCC(=O)NCCCCCC(=O)NCCCNCCCCNCCCN` [Compound 52], for which, in test [2] (setting [5]), the pIC50 was 4.53.
